Results taken from patent publication US20120077760A1, “NOVEL SALTS OF SITAGLIPTIN” (LEK Pharmaceuticals D.D., priority 2009, published 2012).

Assay: Solubility of sitagliptin salts in water at 25° C.
Method: The solubility in water was measured using Crysta™ from Avantium Technologies.

In the case of `N[C@@H](CC(=O)N1CCn2c(nnc2C(F)(F)F)C1)Cc1cc(F)c(F)cc1F.O=C[C@H](O)[C@@H](O)[C@H](O)[C@H](O)C(=O)O` [D-Glucuronate, Sitagliptin D-Glucuronate], the “solubility in water (in words)” value is reported as “very good” and the Solubility in water (25° C.) is reported as >500 mg/mL.

With `N[C@@H](CC(=O)N1CCn2c(nnc2C(F)(F)F)C1)Cc1cc(F)c(F)cc1F` [Dihydrogen phosphate, sitagliptin dihydrogen phosphate, reference compound] the solubility (25 °C, thermodynamic from solid) was 100 to 120 mg/mL.

For Sitagliptin Oxalate, the “solubility in water (in words)” value was “very good”.
